Consider 7 molecules from patent US20230298697A1, “DETERMINING VIABILITY AND TREATMENT OF DISEASE AGENTS” (priority 2022, published 2023).

Values after ≈ are worked out from the molar mass of the structure shown. Values joined by “and” are separate entries in the source; they are usually repeats but may differ in a detail not shown here. Equal values may be shown once.

Test [1] relates to Mycobacterium tuberculosis H37Rv. Nature of the test: Time-kill assay (CFU counting). Type of test: cell-based. Particulars: for CFUs /ml (10^6) h0: h0 (start of treatment); for Relative CFUs (log10) h72: h72 relative to h0.
The test system is the same in test [2]. Nature of the test: Minimum Inhibitory Concentration 50 (MIC50) determination. The test is classed as cell-based. The note with it: OD600 growth inhibition, 72 hours, 7H9-rich media.
Test [3] has the same test system. Particulars: compared with other frontline drugs; stated as known; cited from earlier work.

Take `COc1c(N2C[C@@H]3CCCN[C@@H]3C2)c(F)cc2c(=O)c(C(=O)O)cn(C3CC3)c12` [MXF, Moxifloxacin hydrocholoride]: in test [1] (0.075 µg/ml), the “CFUs /ml (10^6) h0” value is 69 CFUs /ml (10^6) and 53 CFUs /ml (10^6) and 72 CFUs /ml (10^6); the “CFUs /ml (10^6) h24” value was 90 CFUs /ml (10^6) and 88 CFUs /ml (10^6) and 80 CFUs /ml (10^6); the “CFUs /ml (10^6) h72” value was 159 CFUs /ml (10^6) and 165 CFUs /ml (10^6) and 147 CFUs /ml (10^6); the “Relative CFUs (log10) h72” value is 0.363 log10 and 0.493 log10 and 0.31 log10. Also, in test [1] (0.3 µg/ml), the “CFUs /ml (10^6) h0” value was 43 CFUs /ml (10^6) and 50 CFUs /ml (10^6); the “CFUs /ml (10^6) h72” value was 0.1 CFUs /ml (10^6); the “Relative CFUs (log10) h72” value was -2.633 log10 and -2.699 log10. In test [2], this molecule returned an MIC50 of 0.07 µg/mL (≈ 0.174 µM).
As for `CC(=O)NC[C@H]1CN(c2ccc(N3CCOCC3)c(F)c2)C(=O)O1` [LZD, Linezolid], in test [1] (0.0844 µg/ml), the “CFUs /ml (10^6) h0” value was 81 CFUs /ml (10^6) and 100 CFUs /ml (10^6) and 98 CFUs /ml (10^6); the “CFUs /ml (10^6) h24” value is 135 CFUs /ml (10^6) and 147 CFUs /ml (10^6) and 127 CFUs /ml (10^6); the “CFUs /ml (10^6) h72” value is 249 CFUs /ml (10^6) and 245 CFUs /ml (10^6) and 239 CFUs /ml (10^6); the “Relative CFUs (log10) h72” value is 0.488 log10 and 0.389 log10 and 0.387 log10. In test [1] (0.844 µg/ml), the “CFUs /ml (10^6) h0” value is 61 CFUs /ml (10^6) and 68 CFUs /ml (10^6) and 60 CFUs /ml (10^6); the “CFUs /ml (10^6) h24” value was 63 CFUs /ml (10^6) and 74 CFUs /ml (10^6) and 92 CFUs /ml (10^6); the “CFUs /ml (10^6) h72” value was 71 CFUs /ml (10^6) and 86 CFUs /ml (10^6) and 72 CFUs /ml (10^6); the “Relative CFUs (log10) h72” value is 0.066 log10 and 0.102 log10 and 0.079 log10. In test [2], the MIC50 is 1.13 µg/mL (≈ 3.35 µM).
`O=[N+]([O-])c1cn2c(n1)OC[C@@H](OCc1ccc(OC(F)(F)F)cc1)C2` [PA824, Pretomanid] came in with an MIC50 in test [2] of 0.15 µg/mL (≈ 0.418 µM).
In the case of `NNC(=O)c1ccncc1` [INH, Isoniazid], in test [1] (0.018 µg/ml), the “CFUs /ml (10^6) h24” value is 182 CFUs /ml (10^6) and 160 CFUs /ml (10^6) and 171 CFUs /ml (10^6); the “CFUs /ml (10^6) h72” value is 184 CFUs /ml (10^6) and 194 CFUs /ml (10^6) and 203 CFUs /ml (10^6). Further, in test [1] (0.18 µg/ml), the “CFUs /ml (10^6) h0” value is 93 CFUs /ml (10^6) and 77 CFUs /ml (10^6) and 70 CFUs /ml (10^6); the “CFUs /ml (10^6) h24” value was 60 CFUs /ml (10^6) and 90 CFUs /ml (10^6); the “CFUs /ml (10^6) h72” value was 78 CFUs /ml (10^6) and 97 CFUs /ml (10^6) and 70 CFUs /ml (10^6); the “Relative CFUs (log10) h72” value is -0.076 log10 and 0.1 log10 and 0 log10. In addition, in test [1] (0.36 µg/ml), the “CFUs /ml (10^6) h0” value was 159 CFUs /ml (10^6) and 180 CFUs /ml (10^6) and 187 CFUs /ml (10^6); the “CFUs /ml (10^6) h72” value is listed as 0.1 CFUs /ml (10^6); the “Relative CFUs (log10) h72” value is -3.201 log10 and -3.255 log10 and -3.272 log10. In addition, in test [1] (1.8 µg/ml), the “CFUs /ml (10^6) h0” value was 77 CFUs /ml (10^6) and 68 CFUs /ml (10^6) and 87 CFUs /ml (10^6); the “CFUs /ml (10^6) h72” value is given as 0.1 CFUs /ml (10^6); the “Relative CFUs (log10) h72” value was -2.886 log10 and -2.833 log10 and -2.94 log10. The molecule also displayed an MIC50 in test [2] of 0.2 µg/mL (≈ 1.46 µM).
Regarding `COc1nc2ccc(Br)cc2cc1[C@@H](c1ccccc1)[C@@](O)(CCN(C)C)c1cccc2ccccc12` [BDQ, Bedaquiline], the “speed of killing of Mycobacterium tuberculosis” value in test [3] was “kills Mycobacterium tuberculosis relatively slowly”. In addition, in test [1] (1.15 µg/ml), the “CFUs /ml (10^6) h0” value is 61 CFUs /ml (10^6) and 69 CFUs /ml (10^6) and 72 CFUs /ml (10^6); the “CFUs /ml (10^6) h24” value was 91 CFUs /ml (10^6) and 96 CFUs /ml (10^6) and 101 CFUs /ml (10^6); the “CFUs /ml (10^6) h72” value is 352 CFUs /ml (10^6) and 362 CFUs /ml (10^6) and 346 CFUs /ml (10^6); the “Relative CFUs (log10) h72” value was 0.761 log10 and 0.72 log10 and 0.682 log10. For the same molecule, in test [1] (5.75 µg/ml), the “CFUs /ml (10^6) h0” value is 55 CFUs /ml (10^6) and 53 CFUs /ml (10^6) and 61 CFUs /ml (10^6); the “CFUs /ml (10^6) h24” value is 97 CFUs /ml (10^6) and 81 CFUs /ml (10^6) and 100 CFUs /ml (10^6); the “CFUs /ml (10^6) h72” value was 115 CFUs /ml (10^6) and 132 CFUs /ml (10^6) and 96 CFUs /ml (10^6); the “Relative CFUs (log10) h72” value is 0.32 log10 and 0.396 log10 and 0.197 log10. For the same molecule, the MIC50 in test [2] turned out to be 1.61 µg/mL (≈ 2.9 µM).
Take `CC(C)/N=c1\cc2n(-c3ccc(Cl)cc3)c3ccccc3nc-2cc1Nc1ccc(Cl)cc1` [CFZ, Clofazimine]: in test [1] (0.0728 µg/ml), the “CFUs /ml (10^6) h0” value was 239 CFUs /ml (10^6) and 141 CFUs /ml (10^6) and 148 CFUs /ml (10^6); the “CFUs /ml (10^6) h24” value is 116 CFUs /ml (10^6) and 112 CFUs /ml (10^6) and 124 CFUs /ml (10^6); the “CFUs /ml (10^6) h72” value was 176 CFUs /ml (10^6) and 192 CFUs /ml (10^6) and 207 CFUs /ml (10^6); the “Relative CFUs (log10) h72” value was -0.133 log10 and 0.134 log10 and 0.146 log10. Besides, in test [1] (0.728 µg/ml), the “CFUs /ml (10^6) h0” value is 158 CFUs /ml (10^6) and 182 CFUs /ml (10^6) and 101 CFUs /ml (10^6); the “CFUs /ml (10^6) h24” value was 87 CFUs /ml (10^6) and 69 CFUs /ml (10^6) and 67 CFUs /ml (10^6); the “CFUs /ml (10^6) h72” value was 41 CFUs /ml (10^6) and 26 CFUs /ml (10^6) and 52 CFUs /ml (10^6).
In turn, `CO[C@H]1/C=C/O[C@@]2(C)Oc3c(C)c(O)c4c(O)c(c(/C=N/N5CCN(C)CC5)c(O)c4c3C2=O)NC(=O)/C(C)=C\C=C\[C@H](C)[C@H](O)[C@@H](C)[C@@H](O)[C@@H](C)[C@H](OC(C)=O)[C@@H]1C` [RIF, Rifampicin] returned an MIC50 in test [2] of 0.02 µg/mL (≈ 0.0243 µM).

The term MIC50 denotes the lowest concentration that inhibits either 50% of growth or 50% of the strains tested, depending on the study. A low value points to higher susceptibility.
